# According to US12053475B2, “TRPC ion channel inhibitors for use in therapy” (UNIVERSITY OF LEEDS, priority 2017, dated 2024):
# Assays:
# TRPC5 [1] = biological target: T1, TRPC5 (Homo sapiens, UniProt Q9UL62); set-up: host or cells: HEK239 (so in the source); settings: Mol Pharmacol. 2014; cited from earlier work
# T1 sequence (Q9UL62 1-973): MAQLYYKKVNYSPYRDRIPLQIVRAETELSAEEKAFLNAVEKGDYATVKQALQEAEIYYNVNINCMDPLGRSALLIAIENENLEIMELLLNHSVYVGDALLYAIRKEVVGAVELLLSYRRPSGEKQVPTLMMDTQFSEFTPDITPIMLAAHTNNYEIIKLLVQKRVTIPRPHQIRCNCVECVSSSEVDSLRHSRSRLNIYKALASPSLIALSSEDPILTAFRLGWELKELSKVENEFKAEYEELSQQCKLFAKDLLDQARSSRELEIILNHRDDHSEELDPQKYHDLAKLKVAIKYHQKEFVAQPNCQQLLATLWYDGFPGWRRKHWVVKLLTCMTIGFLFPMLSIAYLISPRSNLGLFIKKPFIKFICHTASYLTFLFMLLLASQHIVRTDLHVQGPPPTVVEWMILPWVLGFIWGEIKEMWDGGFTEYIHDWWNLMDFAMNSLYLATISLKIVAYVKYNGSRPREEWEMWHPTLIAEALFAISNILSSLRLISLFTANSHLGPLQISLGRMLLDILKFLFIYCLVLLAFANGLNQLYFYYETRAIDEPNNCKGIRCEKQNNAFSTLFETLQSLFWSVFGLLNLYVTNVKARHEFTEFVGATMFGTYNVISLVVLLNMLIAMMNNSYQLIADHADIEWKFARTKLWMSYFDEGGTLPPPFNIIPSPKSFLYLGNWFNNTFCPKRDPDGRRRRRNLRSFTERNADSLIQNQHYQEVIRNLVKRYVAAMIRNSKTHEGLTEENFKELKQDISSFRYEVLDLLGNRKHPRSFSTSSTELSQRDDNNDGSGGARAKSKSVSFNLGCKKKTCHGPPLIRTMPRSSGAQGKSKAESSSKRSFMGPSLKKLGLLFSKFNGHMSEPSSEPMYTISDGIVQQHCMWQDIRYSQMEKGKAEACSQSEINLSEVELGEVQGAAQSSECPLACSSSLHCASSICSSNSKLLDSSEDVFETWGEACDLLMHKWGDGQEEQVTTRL
# UCP1 and Cytochrome C = test: mRNA analysis of UCP1 and Cytochrome C expression in adipocytes (beiging markers); assay type: cell-based, mice; settings: 10 μM DE2, 24 hr pre-incubation; vs DMSO; FIG. 14
# Protocol: Quantitative RT-PCR analysis RNA from cell and tissue samples was obtained using TRIzol reagent (Thermo Fisher Scientific). 1 μg RNA was reverse-transcribed using High-Capacity cDNA Reverse Transcription Kit (Applied Biosystems) and RT-PCR analysis was performed using SYBR Select Masters Mix (Thermo Fisher Scientific) and LightCycler® 480 (Roche Life Science). The primers used are tabulated in Supplementary Table 1^34. Relative fold-change in expression was calculated using the comparative cycle method (2^−ΔΔCt) Mouse Gapdh gene was used as the reference.
# To determine the influence of DE2 and C31 on expression of markers of white-to-brown adipocyte phenotypic switching, transcript accumulation of UCP1 and Cytochrome C was measured by mRNA analysis in adipocytes from subcutaneous white adipose tissue (n=4-5) of C4WT, C5WT, C4KO, and C5KO mice. Cells were pre-incubated with (24 hr) and maintained in 10 μM DE2 or 100 nM C31 where indicated. The vehicle control was DMSO.
# human TRPC4 = biological target: T2, human TRPC4 (Homo sapiens, UniProt Q9UBN4); test: Intracellular Ca2+ measurement, HEK 293 cells expressing inducible human TRPC4, activated by (−)-Englerin A; assay type: cell-based; settings: 10 μM DE2, 30 min pre-incubation; EA 100 nM; FIG. 12
# T2 construct: expressed in transfected cells
# T2 sequence (Q9UBN4 1-977): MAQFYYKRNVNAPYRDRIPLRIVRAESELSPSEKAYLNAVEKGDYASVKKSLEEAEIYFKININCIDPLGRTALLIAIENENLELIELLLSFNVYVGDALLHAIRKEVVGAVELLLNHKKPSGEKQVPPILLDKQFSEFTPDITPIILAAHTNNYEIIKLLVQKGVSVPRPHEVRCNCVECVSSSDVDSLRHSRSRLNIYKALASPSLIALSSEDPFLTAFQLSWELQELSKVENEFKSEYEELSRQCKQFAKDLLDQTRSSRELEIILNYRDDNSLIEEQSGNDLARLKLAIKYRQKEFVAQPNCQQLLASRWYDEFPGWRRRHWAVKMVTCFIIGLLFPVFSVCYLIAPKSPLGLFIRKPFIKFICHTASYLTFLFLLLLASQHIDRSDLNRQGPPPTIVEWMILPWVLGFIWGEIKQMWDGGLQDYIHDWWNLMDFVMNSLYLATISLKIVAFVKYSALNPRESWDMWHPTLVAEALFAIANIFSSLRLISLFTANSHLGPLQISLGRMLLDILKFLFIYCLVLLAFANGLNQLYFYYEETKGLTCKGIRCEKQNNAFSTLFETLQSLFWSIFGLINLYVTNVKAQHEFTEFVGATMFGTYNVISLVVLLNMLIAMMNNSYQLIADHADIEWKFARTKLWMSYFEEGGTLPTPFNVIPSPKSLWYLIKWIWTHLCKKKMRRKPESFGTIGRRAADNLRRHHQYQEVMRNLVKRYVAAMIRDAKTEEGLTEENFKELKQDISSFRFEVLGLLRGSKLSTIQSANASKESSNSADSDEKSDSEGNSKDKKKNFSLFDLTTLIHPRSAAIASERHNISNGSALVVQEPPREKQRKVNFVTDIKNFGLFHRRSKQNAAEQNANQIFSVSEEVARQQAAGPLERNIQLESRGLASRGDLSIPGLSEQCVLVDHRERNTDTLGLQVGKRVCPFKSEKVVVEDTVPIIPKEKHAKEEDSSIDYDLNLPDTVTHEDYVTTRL
# Protocol: (§1) Cell culture Mouse stromal vascular fraction (SVF) cells from subcutaneous adipose tissue were isolated by mincing of the tissue followed by enzymatic digestion with 0.3 mg·mL^−1 Collagenase type II (Sigma), 0.3 mg·mL^−1 Collagenase type IV (Sigma), 2 mg·mL^−1 BSA (Sigma), 0.08 mg·mL^−1 DNase I (Sigma) and 0.04 mg·mL^−1 Dispase (Thermo Fisher Scientific) in serum free RPMI 1640 media (Gibco) for 45 min at 37° C. in 95% O2 and 5% CO2 environment. Isolated cells were centrifuged and processed through a 100 μm cell strainer. Following centrifugation, the cell pellet was reconstituted in full RPMI 1640 media containing 15% fetal calf serum and 1% penicillin-streptomycin (Gibco). Media was changed on the following day to remove non-adherent cells. […]
# (§2) Intracellular Ca^2+ measurement HEK 293 cells containing stable incorporation of inducible TRPC4 or TRPC5 expression were seeded into 96-well clear-bottomed poly-D-lysine-coated black plates (Corning Life Sciences) at 90% confluence 24 hr before the experiment. […] The Fura-2-AM fluorescence was recorded using a 96-well fluorescence plate reader FlexStation II (Molecular Devices) at excitation wavelengths of 340 nm and 380 nm, and the emitted light was collected at 510 nm. […]
# [2] = test system: adipocytes from subcutaneous white adipose tissue of mice; test: Respirometry (oxygen consumption) in adipocytes; assay type: cell-based; settings: 10 μM DE2, 24 hr pre-incubation; vs DMSO; FIG. 13
# Protocol: Protein preparation and immunoblotting Proteins were isolated from cells and tissues using radio-immunoprecipitation assay (RIPA) buffer containing (in mM) 150 NaCl, 20 Tris HCl, 1 EGTA, 1 EDTA, 1% NP-40, 0.1% sodium dodecyl sulfate (SDS) and 1% sodium deoxylate. Complete™ protease inhibitor (Roche Life Science) was added into RIPA fresh before use in accordance with the manufacturer's instructions. Immunoblotting was carried out under standard protocols with primary antibodies anti-UCP1 (1:500, ab23841; Abcam), Cytochrome C (1:4000, ab110325; Abcam), Akt (pan) (1:1000, 4691; Cell Signaling) and Phospho-Akt (Ser473) (1:500, 4060; Cell Signaling). […] The cells were inoculated into the OROBOROS Oxygraph-2k chambers and oxidative phosphorylation analyses were performed using the mitochondrial substrate-uncoupler-inhibitor-titration protocol consisting of: substrate activation using sodium pyruvate, inhibition of ATP synthase using oligomycin, uncoupling via sequential addition of FCCP to maximum oxygen flux, mitochondria complex I and III inhibition using Rotenone and Antimycin A. Traces were analyzed using DatLab 6 Software (OROBOROS), measuring for routine state respiration (routine), mitochondrial leak (leak), maximum uncoupling capacity of the electron transport system (ETS) and rotenone and antimycin A-inhibited residual oxygen consumption (ROX). […]
# TRPC5 [3] = biological target: T1, TRPC5; test: Intracellular Ca2+ measurement, HEK 293 cells expressing inducible human TRPC5, activated by (−)-Englerin A; assay type: cell-based; set-up: expressed in transfected cells; settings: 10 μM DE2, 30 min pre-incubation; EA 100 nM; FIG. 12
# Protocol: as §1, §2
# TRPC5 [4] = biological target: T1, TRPC5; set-up: host or cells: HEK239 (so in the source); settings: HEK239 cells expressing TRPC5; Naylor et al.; cited from earlier work
compound,measurement,setting,value
"Clc1ccc(Cn2c(CN3CCCC3)nc3ccccc32)cc1 [Clemizole, clemizole]",inhibition of TRPC5,TRPC5 [1],potent and selective inhibitor
"CCN(CC)Cc1nc2ccccc2n1Cc1ccc(Cl)cc1 [DE2, ({1-[(4-Chlorophenyl)methyl]-1H-benzimidazol-2-yl}methyl)diethylamine]",adipocyte UCP1/Cytochrome C expression,UCP1 and Cytochrome C,increases
same,inhibition of TRPC4 channels (intracellular Ca2+),human TRPC4,demonstrated inhibition
same,adipocyte mitochondrial respiration,[2],increases
same,inhibition of TRPC5 channels (intracellular Ca2+),TRPC5 [3],demonstrated inhibition
O=c1c(O)c(-c2ccccc2)oc2cc(O)cc(O)c12 [galangin],inhibition of TRPC5 ion channel function,TRPC5 [4],inhibitors
Oc1ccc(C=Cc2cc(O)cc(O)c2)cc1 [resveratrol],inhibition of TRPC5 ion channel function,TRPC5 [4],inhibitors
O=C1O[C@H]([C@@H](O)CO)C(O)=C1O [vitamin C],inhibition of TRPC5 ion channel function,TRPC5 [4],inhibitors
